We go through 55 compounds from US12466813B2, “PRC1 inhibitors and methods of treatment therewith” (The Regents of the University of Michigan, priority 2018, dated 2025).

The target of this assay is T1, RING1B-BMI1 (Homo sapiens, UniProt Q99496).
T1 sequence (Q99496 1-336): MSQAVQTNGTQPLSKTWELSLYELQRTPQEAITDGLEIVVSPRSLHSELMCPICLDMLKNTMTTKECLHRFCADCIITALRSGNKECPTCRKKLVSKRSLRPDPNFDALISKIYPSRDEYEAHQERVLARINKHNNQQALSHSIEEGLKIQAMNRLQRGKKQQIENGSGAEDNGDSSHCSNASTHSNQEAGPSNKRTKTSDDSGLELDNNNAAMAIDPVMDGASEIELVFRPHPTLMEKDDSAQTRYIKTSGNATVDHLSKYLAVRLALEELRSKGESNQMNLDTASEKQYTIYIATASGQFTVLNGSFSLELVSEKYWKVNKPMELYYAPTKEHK
T1 sequence (P35226 1-326 partner): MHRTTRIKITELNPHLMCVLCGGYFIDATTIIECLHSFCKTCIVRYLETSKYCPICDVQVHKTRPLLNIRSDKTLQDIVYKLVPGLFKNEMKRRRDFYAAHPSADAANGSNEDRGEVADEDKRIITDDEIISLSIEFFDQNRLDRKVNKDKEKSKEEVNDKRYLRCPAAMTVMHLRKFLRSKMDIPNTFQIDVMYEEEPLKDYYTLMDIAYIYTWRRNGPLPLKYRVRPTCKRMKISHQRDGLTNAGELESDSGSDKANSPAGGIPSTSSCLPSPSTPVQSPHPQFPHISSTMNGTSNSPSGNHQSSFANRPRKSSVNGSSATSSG
Kind of assay: KD classes of Table A (direct binding to Ring1B-Bmi1). The following applies: class given in Table A. As to the method:
Experiments were conducted during development of embodiments herein to develop small molecule inhibitors of PRC1 by targeting the Ring1B-BMI1 E3 ligase. These compounds bind directly to Ring1B-Bmi1 with low-micromolar affinity and inhibit PRC1 in vitro and in cells. […] Experiments were conducted during development of embodiments herein to test COMPOUND 1 in leukemia stem cell models represented by TEX cells (Ref. 22; herein incorporated by reference in its entirety) and M9-ENL1 cells (Ref. 23; herein incorporated by reference in its entirety). […] In some embodiments, COMPOUND 1 and COMPOUND 1 analogs are find use as agents in targeting leukemia and other cancer stem cells.
The compounds listed in Table A have been synthesized and/or tested for activity in inhibiting activity of PRC1 complex, and are within the scope herein.
Take `CCc1c(-c2c(C)ccc3[nH]ccc23)[nH]c(C(=O)O)c1-c1cccc2[nH]ccc12` [compound 2]: the Kd is less than 20 µM. Take `COc1cc(Cl)c(-c2c(C(=O)O)[nH]c(-c3cccc4[nH]ccc34)c2C(C)C)cc1[N+](=O)[O-]` [compound 3]: the Kd is less than 20 µM. The figure for `CC(C)c1c(-c2cccc3[nH]ccc23)[nH]c(C(=O)O)c1-c1cc([N+](=O)[O-])c(O)cc1Cl` [compound 4] is less than 20 µM.

Consider `COc1cc(Cl)c(-c2c(C(=O)O)[nH]c(-c3cccc4[nH]ccc34)c2C(C)C)cc1N` [compound 5], for which the Kd is less than 20 µM. The figure for `CCc1c(-c2c(C)ccc3[nH]ccc23)[nH]c(C(=O)O)c1-c1c(Cl)ccc2[nH]ccc12` [compound 6] is less than 20 µM. For `Cc1ccc2[nH]ccc2c1-c1[nH]c(C(=O)O)c(-c2c(Cl)ccc3[nH]ccc23)c1C(C)C` [compound 7], the Kd is less than 20 µM. The compound `Cc1cc(-c2[nH]c(C(=O)O)c(-c3c(Cl)ccc4[nH]ccc34)c2C(C)C)c2cc[nH]c2c1` [compound 8] had an equilibrium dissociation constant (Kd) of less than 20 µM. The figure for `CCc1cc(-c2[nH]c(C(=O)O)c(-c3c(Cl)ccc4[nH]ccc34)c2C(C)C)c2cc[nH]c2c1` [compound 9] is less than 20 µM; for `CC(C)c1c(-c2cc(C(F)(F)F)cc3[nH]ccc23)[nH]c(C(=O)O)c1-c1c(Cl)ccc2[nH]ccc12` [compound 10] it is less than 20 µM. With `COc1cc(-c2[nH]c(C(=O)O)c(-c3c(Cl)ccc4[nH]ccc34)c2C(C)C)c2cc[nH]c2c1` [compound 11], the Kd was less than 20 µM. The figure for `CC(C)c1c(-c2cc(O)cc3[nH]ccc23)[nH]c(C(=O)O)c1-c1c(Cl)ccc2[nH]ccc12` [compound 12] is less than 20 µM; for `CC(C)c1c(-c2cc(Cl)cc3[nH]ccc23)[nH]c(C(=O)O)c1-c1c(Cl)ccc2[nH]ccc12` [compound 13] it is less than 20 µM. The figure for `CC(C)c1c(-c2cc(F)cc3[nH]ccc23)[nH]c(C(=O)O)c1-c1c(Cl)ccc2[nH]ccc12` [compound 14] is less than 20 µM; for `CCc1c(-c2cccc3[nH]ccc23)[nH]c(C(=O)O)c1-c1ccc(OC)cc1Br` [compound 15] it is less than 20 µM; for `CCc1c(-c2cccc3[nH]ccc23)[nH]c(C(=O)O)c1-c1c(Cl)ccc2[nH]ccc12` [compound 16] it is less than 20 µM. The figure for `CC(C)c1c(-c2cccc3[nH]ccc23)[nH]c(C(=O)O)c1-c1ccccc1Cl` [compound 17] is less than 20 µM; for `CCc1c(-c2cccc3[nH]ccc23)[nH]c(C(=O)O)c1-c1c(Cl)cc(OC)c2[nH]ccc12` [compound 18] it is less than 20 µM. Compound `COc1ccc(-c2c(C(=O)O)[nH]c(-c3cccc4[nH]ccc34)c2C(C)C)c(Cl)c1` [compound 19] displayed a Kd of less than 20 µM. The figure for `CCc1c(-c2cccc3[nH]ccc23)[nH]c(C(=O)O)c1-c1cccc2[nH]ccc12` [compound 20] is less than 20 µM; for `CCc1c(-c2cccc3[nH]ccc23)[nH]c(C(=O)O)c1-c1cccc2c1ccn2CC` [compound 21] it is less than 20 µM; for `CCc1c(-c2ccc(C)c3[nH]ccc23)[nH]c(C(=O)O)c1-c1cccc2[nH]ccc12` [compound 22] it is less than 20 µM. The figure for `CCOc1ccc(-c2c(C(=O)O)[nH]c(-c3cccc4[nH]ccc34)c2CC)c(Cl)c1` [compound 23] is less than 20 µM; for `CCc1c(-c2cccc3[nH]ccc23)[nH]c(C(=O)O)c1-c1ccc(OC)cc1Cl` [compound 24] it is less than 20 µM; for `CCc1c(-c2cccc3[nH]ccc23)[nH]c(C(=O)O)c1-c1ccc2cc[nH]c2c1` [compound 25] it is less than 20 µM. The figure for `Cc1c[nH]c2cccc(-c3[nH]c(C(=O)O)c(-c4c(Cl)ccc5[nH]ccc45)c3C(C)C)c12` [compound 26] is less than 20 µM; for `CC(C)c1c(-c2cccc3[nH]cc(CCO)c23)[nH]c(C(=O)O)c1-c1c(Cl)ccc2[nH]ccc12` [compound 27] it is less than 20 µM; for `CC(C)c1c(-c2cc(F)cc3[nH]cc(CCO)c23)[nH]c(C(=O)O)c1-c1c(Cl)ccc2[nH]ccc12` [compound 28] it is less than 20 µM. With `O=C(O)c1[nH]c(-c2cccc3[nH]ccc23)c(C2CC2)c1-c1cccc2[nH]ccc12` [compound 29], the dissociation constant Kd is less than 20 µM. The figure for `CC(c1c(-c2cccc3[nH]ccc23)[nH]c(C(=O)O)c1-c1cccc2[nH]ccc12)C(F)F` (stereo not shown) [compound 30, 4-(1,1-Difluoropropan-2-yl)-3,5-di(1H-indol-4-yl)-1H-pyrrole-2-carboxylic acid] is less than 20 µM.

In turn, `CC(CO)c1c(-c2cccc3[nH]ccc23)[nH]c(C(=O)O)c1-c1cccc2[nH]ccc12` (stereo not shown) [compound 31] registered a Kd of less than 20 µM.

`CC(CF)c1c(-c2cccc3[nH]ccc23)[nH]c(C(=O)O)c1-c1cccc2[nH]ccc12` (stereo not shown) [compound 32] displayed a dissociation constant Kd of less than 20 µM. `CC(C)c1c(-c2cccc3[nH]ccc23)[nH]c(C(=O)O)c1-c1cccc2[nH]ccc12` [compound 33] displayed a Kd of less than 20 µM. The figure for `Cc1c[nH]c2cccc(-c3c(C(=O)O)[nH]c(-c4cccc5[nH]ccc45)c3C(C)C)c12` [compound 34] is less than 20 µM.

`CC(C)c1c(-c2cc(F)cc3[nH]ccc23)[nH]c(C(=O)O)c1-c1cccc2[nH]ccc12` [compound 35] registered a Kd of less than 20 µM.

Regarding `CC(C)c1c(-c2cc(F)cc3[nH]ccc23)[nH]c(C(=O)O)c1-c1cc(F)cc2[nH]ccc12` [compound 36], the Kd is less than 20 µM. The figure for `COc1ccc(-c2c(C(=O)O)[nH]c(-c3cc(F)cc4[nH]ccc34)c2C(C)C)c2cc[nH]c12` [compound 37] is less than 20 µM; for `CC(C)c1c(-c2cc(F)cc3[nH]ccc23)[nH]c(C(=O)O)c1-c1ccc2[nH]ccc2c1` [compound 38] it is less than 20 µM. `COc1cc(-c2c(C(=O)O)[nH]c(-c3cc(F)cc4[nH]ccc34)c2C(C)C)c2cc[nH]c2c1` [compound 39] yielded a Kd of less than 20 µM. The figure for `CC(C)c1c(-c2cc(F)cc3[nH]ccc23)[nH]c(C(=O)O)c1-c1cccc2[nH]ncc12` [compound 40] is less than 20 µM. The figure for `CC(C)c1c(-c2cc(F)cc3[nH]ccc23)[nH]c(C(=O)O)c1-c1cc(Cl)cc2[nH]ccc12` [compound 41] is less than 20 µM. The figure for `CCOc1cc(-c2c(C(=O)O)[nH]c(-c3cc(F)cc4[nH]ccc34)c2C(C)C)c2cc[nH]c2c1` [compound 42] is less than 20 µM; for `CC(C)c1c(-c2cc(F)cc3[nH]ccc23)[nH]c(C(=O)O)c1-c1cc(C(F)(F)F)cc2[nH]ccc12` [compound 43] it is less than 20 µM; for `CC(C)c1c(-c2cc(F)cc3[nH]ccc23)[nH]c(C(=O)O)c1-c1cccc2c1ccn2CCO` [compound 44] it is less than 20 µM. `CCc1cc(-c2c(C(=O)O)[nH]c(-c3cc(F)cc4[nH]ccc34)c2C(C)C)c2cc[nH]c2c1` [compound 45] registered a Kd of less than 20 µM. The figure for `COc1cc(-c2c(C(=O)O)[nH]c(-c3cc(F)cc4[nH]ccc34)c2C(C)C)c2ccn(CC(=O)O)c2c1` [compound 46] is less than 20 µM; for `CC(C)c1c(-c2cc(F)cc3[nH]ccc23)[nH]c(C(=O)O)c1-c1cccc2[nH]c(C(=O)O)cc12` [compound 47] it is less than 20 µM. The figure for `CC(C)c1c(-c2cc(F)cc3[nH]ccc23)[nH]c(C(=O)O)c1-c1cc(OC(F)(F)F)cc2[nH]ccc12` [compound 48] is less than 20 µM; for `CC(C)c1c(-c2cccc3[nH]c(C(=O)O)cc23)[nH]c(C(=O)O)c1-c1c(Cl)ccc2[nH]ccc12` [compound 49] it is less than 20 µM. The figure for `COc1cc(-c2c(C(=O)O)[nH]c(-c3cc(F)cc4[nH]ccc34)c2C(C)C)c2cc(C(=O)O)[nH]c2c1` [compound 50] is less than 20 µM; for `Cc1cc(-c2c(C(=O)O)[nH]c(-c3cc(F)cc4[nH]ccc34)c2C(C)C)c2cc[nH]c2c1` [compound 51] it is less than 20 µM; for `CC(C)c1c(-c2cccc3[nH]c(CO)cc23)[nH]c(C(=O)O)c1-c1c(Cl)ccc2[nH]ccc12` [compound 52] it is less than 20 µM. Regarding `CC(C)c1c(-c2cc(F)cc3[nH]ccc23)[nH]c(C(=O)O)c1-c1c(Cl)ccc2[nH]c(C(=O)O)cc12` [compound 53], the Kd is less than 20 µM. The figure for `CC(C)c1c(-c2cc(F)cc3[nH]ccc23)[nH]c(C(=O)O)c1-c1cc(C(F)(F)F)cc2c1ccn2CC(=O)O` [compound 54] is less than 20 µM; for `CC(C)c1cc(-c2c(C(=O)O)[nH]c(-c3cc(F)cc4[nH]ccc34)c2C(C)C)c2ccn(CC(=O)O)c2c1` [compound 55] it is less than 20 µM. The figure for `COc1ccc(-c2c(C(=O)O)[nH]c(-c3cc(F)cc4[nH]ccc34)c2C(C)C)c(Cl)c1` [compound 56] is less than 20 µM.

The term Kd denotes the concentration at which binding is half-saturated. Low values mean a tighter complex, high ones a looser complex.
